Assay results from patent publication US9765115B2, “Inhibitors of metastasis, methods of generating such inhibitors and their therapeutic applications” (Board of Supervisors of Louisiana State University acting …, priority 2011, dated 2017).

Assays:
PC-3-CTR-wt cells = assay: Matrigel in vitro invasion assay; format: cell-based; details: for effect on CT-induced invasion / effect on basal invasion: peptide 50 μM; for effect on CT-induced invasion: CT 50 nM; for effect on basal invasion: no CT
Experimental: Invasion experiments were conducted in Matrigel™ invasion chambers as previously described (Sabbisetti et al., 2005).
CT increases invasiveness, and even induces an invasive phenotype in non-invasive prostate cancer cells. The role of PDZ-binding motif in CT-stimulated invasion was examined. FIG. 2C depicts CTR-C PDZ-binding motif mutation and effects on cell invasion. PC-3V, PC-3 CTRwt and PC-3 CTRΔESS cells were added to upper insert of invasion chambers with or without 50 nM CT, and cells that passed through the Matrigel™ barrier were counted after 48 h. The results are expressed as mean number of invaded cells per 400× field ±SEM (n=6; *p<0.05 (PC-3V v PC-3CTR-wt); $ p<0.05 (PC-3CTR-wt v PC-3CTRΔESS); $$-p<0.05 (PC-3CTRwt+CT v PC-3CTRΔESS+CT) (one-way ANOVA and Newman-Keul's test)). Expression of CTRwt in PC-3 cells increased invasion by 2.5-fold (FIG. 2C).
(§1) As shown above, CTR binds to ZO-1 through PDZ interaction (i.e. PDZ ligand on C-tail of CTR binds to the PDZ domain of ZO-1). To attenuate this binding, ZO-1 was saturated with a small C-terminal peptide of CTR sequence containing the PDZ-binding motif. Since ZO-1 is an intracellular membrane protein, the interfering peptide was delivered inside the plasma membrane. It has been shown that trans-activating transcriptional activator (TAT) protein (86-mer polypeptide) from HIV-1 enters mammalian cells when added to the surrounding media (Frankel et al., 1988; Green et al., 1989). Certain small regions of such proteins (10-16-mers) called protein transduction domains (PTDs), also efficiently traverse biological membranes (Elliott et al., 1997). Therefore, a fusion peptide Pep 1 was synthesized of TAT-peptide sequences of HIV virus and CTR-C(N-[…]-C (SEQ ID NO:2), CTR-C sequence underlined). The first experiment was to see if Pep I binds to ZO-1 in reversible fashion. For this, amino acid Y in Pep I was labeled with ^125I, and the binding with ZO-1 analyzed in the presence/absence of unlabeled Pep I (1000×; 20 μM). PC-3CTR-ZO-1-MYC cells were first incubated with unlabeled Pep I or control peptide (20 μM) for 5 min. The cells were then incubated with ^125I-pep I or C for 25 min. The cells were then washed in IP buffer, treated with DSP, and lysed. ZO-1 IPs were obtained, fractionated on SDS-PAGE, and autoradiographed. […] Next, whether Pep I competes with CTR for ZO-1 binding was tested. For this, PC-3-CTR-wt cells were treated with CT (50 nM) and or Pep I (50 μM) for 15 min. The CTR IPs were then immunoblotted and probed for ZO-1 immunoreactivity. […] Next, the biological impact of this phenomenon was examined by testing the effect of Pep I on CTR-stimulated invasion.
The binding of ZO-1 and CTR can be attenuated by saturating ZO-1 with a small C-terminal peptide of CTR sequence containing the PDZ ligand. Since ZO-1 is an intracellular membrane protein, the interfering peptide must penetrate plasma membrane to interact with ZO-1. As discussed above, fusion peptides of small TAT peptides (12-mer) and six (Pep I) or eight amino acids (Pep II) of C-terminal of CTR were synthesized. Control peptides were TAT peptides (12-mer) containing random amino acid sequence of equivalent size (6-mer). […] Thus, these two peptides (sequences given below) could be used therapeutically to attenuate or inhibit metastasis in cancerous cells.

CTR-ZO-1 interaction = assay: CTR-ZO-1 co-immunoprecipitation; format: cell-based; details: Pep I 50 μM, with or without CT 50 nM, PC-3-CTR-wt cells
Experimental: Serum-starved PC-31-V, PC-31-CTRwt or PC-31-CTRΔESS cells (2×10^6 per 100 mm dish) were stimulated with or without 50 nM CT for 3 min, washed, and lysed in the IP buffer as previously described (von Zastrow et al., 1994). CTR in normalized lysate proteins was immunoprecipitated with anti-FLAG EZ-view beads (Sigma Chemical Co., St. Louis, Mo.), and eluted with FLAG peptide (600 μg/ml in PBS). CTR immunoprecipitates were processed for ZO-1 immunoblotting. To control for protein loading and transfer, the blots were stripped and reprobed with immunoprecipitating antibody.
PC-31 cells stably expressing either FLAG-CTRwt or FLAGCTRΔESS were treated with or without CT for 3 min. The analysis of FLAG-CTR IPs confirmed that only FLAG-CTRwt, but not FLAG-CTRΔESS, co-precipitated ZO-1 (FIG. 3B). […] The effect of multiple CT concentrations on CTR-ZO-1 co-precipitation was tested in PC-3 cells. […] However, co-precipitation of ZO-1 by CTRwt was strong in PC-3 cells stimulated with 10 nM CT, and was even stronger in the cells receiving 100 nM CT.
as §1

ZO-1 = target: T1, ZO-1 (Homo sapiens, UniProt Q07157); assay: 125I-Pep I binding to ZO-1 (ZO-1 immunoprecipitation, autoradiography)
T1 construct: expressed in transfected cells; host or cells: PC-3CTR-ZO-1-MYC cells
T1 sequence (Q07157 whole entry): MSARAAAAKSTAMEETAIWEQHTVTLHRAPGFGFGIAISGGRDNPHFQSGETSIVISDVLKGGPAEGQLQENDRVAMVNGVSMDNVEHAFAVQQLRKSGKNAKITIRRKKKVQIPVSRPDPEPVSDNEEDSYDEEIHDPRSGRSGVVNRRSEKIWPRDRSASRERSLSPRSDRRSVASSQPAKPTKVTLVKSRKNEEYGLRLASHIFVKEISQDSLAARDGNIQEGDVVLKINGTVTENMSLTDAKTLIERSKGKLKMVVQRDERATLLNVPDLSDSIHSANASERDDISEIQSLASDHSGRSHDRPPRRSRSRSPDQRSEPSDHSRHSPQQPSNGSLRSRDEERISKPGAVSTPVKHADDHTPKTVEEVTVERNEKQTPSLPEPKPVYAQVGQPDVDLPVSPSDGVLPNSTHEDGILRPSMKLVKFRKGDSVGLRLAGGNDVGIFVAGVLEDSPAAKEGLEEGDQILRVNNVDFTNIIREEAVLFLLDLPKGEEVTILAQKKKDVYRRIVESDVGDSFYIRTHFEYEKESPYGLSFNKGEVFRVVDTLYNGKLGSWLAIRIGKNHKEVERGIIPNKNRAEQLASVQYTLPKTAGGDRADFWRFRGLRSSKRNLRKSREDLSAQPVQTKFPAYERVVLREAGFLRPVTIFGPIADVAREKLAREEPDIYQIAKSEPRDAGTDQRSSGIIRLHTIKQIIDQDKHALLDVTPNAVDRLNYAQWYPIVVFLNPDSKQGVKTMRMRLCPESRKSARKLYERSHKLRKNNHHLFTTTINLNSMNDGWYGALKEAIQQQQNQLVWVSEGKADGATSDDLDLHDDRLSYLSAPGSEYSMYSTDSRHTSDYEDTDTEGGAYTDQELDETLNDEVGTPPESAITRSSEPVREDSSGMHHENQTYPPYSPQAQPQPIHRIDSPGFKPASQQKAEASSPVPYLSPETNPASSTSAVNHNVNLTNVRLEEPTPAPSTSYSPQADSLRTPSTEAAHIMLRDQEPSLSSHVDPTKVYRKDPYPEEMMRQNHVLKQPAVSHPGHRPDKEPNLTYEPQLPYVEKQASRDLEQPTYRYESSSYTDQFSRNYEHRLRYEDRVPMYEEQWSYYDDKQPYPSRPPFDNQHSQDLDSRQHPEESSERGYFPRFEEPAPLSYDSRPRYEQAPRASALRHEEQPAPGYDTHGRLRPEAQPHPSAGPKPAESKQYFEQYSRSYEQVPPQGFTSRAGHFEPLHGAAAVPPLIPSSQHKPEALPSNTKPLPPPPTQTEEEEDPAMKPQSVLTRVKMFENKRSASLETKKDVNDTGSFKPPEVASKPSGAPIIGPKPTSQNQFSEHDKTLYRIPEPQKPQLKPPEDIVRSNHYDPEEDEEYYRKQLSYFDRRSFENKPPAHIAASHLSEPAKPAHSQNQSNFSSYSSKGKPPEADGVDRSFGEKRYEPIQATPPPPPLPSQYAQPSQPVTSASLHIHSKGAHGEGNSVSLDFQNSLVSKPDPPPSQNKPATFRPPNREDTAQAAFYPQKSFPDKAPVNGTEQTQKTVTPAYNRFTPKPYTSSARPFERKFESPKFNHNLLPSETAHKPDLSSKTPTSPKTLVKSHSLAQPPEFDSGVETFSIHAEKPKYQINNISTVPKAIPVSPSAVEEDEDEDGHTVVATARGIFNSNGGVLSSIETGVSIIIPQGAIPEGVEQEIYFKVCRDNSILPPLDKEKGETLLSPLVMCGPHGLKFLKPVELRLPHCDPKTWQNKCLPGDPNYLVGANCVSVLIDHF
Experimental: The cells were then treated with ^125I-TAT-pepI or TAT-C for 25 min. The cell lysates were then immunoprecipitated with Anti-ZO-1 serum, the immunoprecipitates were washed, fractionated on SDS-gel, and then immunoblotted for ZO-1 and autoradiographed.
As shown above, CTR binds to ZO-1 through PDZ interaction (i.e. PDZ ligand on C-tail of CTR binds to the PDZ domain of ZO-1). To attenuate this binding, ZO-1 was saturated with a small C-terminal peptide of CTR sequence containing the PDZ-binding motif. Since ZO-1 is an intracellular membrane protein, the interfering peptide was delivered inside the plasma membrane. It has been shown that trans-activating transcriptional activator (TAT) protein (86-mer polypeptide) from HIV-1 enters mammalian cells when added to the surrounding media (Frankel et al., 1988; Green et al., 1989). Certain small regions of such proteins (10-16-mers) called protein transduction domains (PTDs), also efficiently traverse biological membranes (Elliott et al., 1997). Therefore, a fusion peptide Pep 1 was synthesized of TAT-peptide sequences of HIV virus and CTR-C(N-[…]-C (SEQ ID NO:2), CTR-C sequence underlined). The first experiment was to see if Pep I binds to ZO-1 in reversible fashion. For this, amino acid Y in Pep I was labeled with ^125I, and the binding with ZO-1 analyzed in the presence/absence of unlabeled Pep I (1000×; 20 μM). […]

prostate tumor = details: Shah et al., 2009; cited from earlier work
[1] = system: TCF/LEF promoter activity in PC-3 cells; assay: TCF/LEF luciferase reporter assay (pGL3-OT/pGL3-OF); format: cell-based
Experimental: FIG. 28 depicts effect of CT on TCF/LEF promoter activity in PC-3 cells with various compounds added with CT. Cells were seeded into 6-well plates and transfected with the pGL3-OT luciferase/pRL-tK plasmids or pGL3-OF-luciferase/pRL-TK plasmids. The cells were then incubated in complete medium for 48 h, after which they were serum-starved for 16 h. The cells were then treated with CT and/or PMH compounds, and the cell lysates analyzed for luciferase activity. The results are expressed as relative light units (RLU) after normalization with Renilla luciferase activity. The experiment was repeated three separate times, and results expressed as means±S.E.M.
Certain hydantoin-like molecules isolated from sea sponge have been identified that could inhibit prostate cell metastasis (Shah et al., 2009; Mudit et al., 2011). Disruption of junctional complex stabilizes intracellular β-catenin, leading to its translocation in the nucleus, where it can bind to its partner LEF-1 (lymphocyte enhancer binding factor-1) to transactivate target genes. The transcription of TCF/LEF genes can be quantitated by using luciferase-based reporter plasmids, pGL3-OT and pGL3-OF, the improved version of the Topflash and Fopflash vectors (Shah et al., 2009). This assay can be used to comparatively evaluate junction disrupting activity of multiple compounds in a single assay. […] The two compounds, MRM-6 and MRM-4, derivatives of PMH whose structures are shown below, were obtained from Dr. K. A. El Sayed.

protein kinase A (PKA) = assay: PKA activity in cell lysates; format: cell-based; details: 100 nM of mPKI, 10 μM of H-89
Experimental: The lysates of untreated and CT-treated PC-3CTRwt and PC-3CTRΔESS cells were also used to determine CT-stimulated protein kinase A (PKA) and protein kinase C (PKC) activity (PKA and PKC assay kits, Promega, Madison, Wis.). The manufacturer's instructions were followed.
FIG. 1E depicts the effect of 50 nM CT on PKA activity in cell lysates of untreated and CT-treated PC-3 CTRwt and PC-3 CTRΔESS cells that were incubated with PKA substrate peptide and ^32P-ATP, and also treated with an activator of PKA, forskolin (FSK). FIG. 1F depicts the effect of 50 nM CT on PKC activity in lysates of untreated and CT-treated PC-3 CTRwt and PC-3 CTRΔESS cells that were incubated with PKC substrate peptide and ^32P-ATP, and also treated with an activator of PKC, phorbol 12-myristate 13-acetate (PMA).
To test whether specific PKA inhibitors abrogate CT-induced TJ disassembly, two specific, well-characterized PKA inhibitors, mPKI and H-89, were used. PC-3CTRwt cells were treated with CT (50 nM for 30 min) in the presence of mPKI (100 nM) or H-89 (10 μM). Either of these inhibitors was added 15 min prior to the addition of CT. […] FIG. 16A depicts photo micrographs of PC3-CTRwt cells, CT-stimulated in the presence and absence of mPKI. […]

Molecule: N-IIEQESSAYGRKKRRQRRR-C [Pep II]
- effect on CT-induced invasion (PC-3-CTR-wt cells): significantly attenuated
- effect on CT-induced invasion (PC-3-CTR-wt cells; listed as pepII): attenuate
- effect on basal invasion (PC-3-CTR-wt cells): did not significantly affect

Molecule: N-EQESSAAYGRKKRRQRRR-C [Pep I]
- relative potency as antagonist of CT-induced invasion (PC-3-CTR-wt cells; Pep I versus Pep II, 50 μM): the more potent antagonist
- effect on CT-induced invasion (PC-3-CTR-wt cells): significantly attenuated
- effect on CT-induced invasion (PC-3-CTR-wt cells; listed as TAT-pepI): attenuate
- effect on basal invasion (PC-3-CTR-wt cells): neither the control peptide nor Pep I (50 μM) significantly affected
- effect on basal invasion (PC-3-CTR-wt cells; listed as PepI): did not significantly affect
- effect on CTR-ZO-1 co-precipitation (CTR-ZO-1 interaction): markedly diminished
- binding to ZO-1 (co-IP of 125I-labeled peptide) (ZO-1; PC-3CTR-ZO-1-MYC cells, 25 min): bound to ZO-1
- binding of 125I-Pep I to ZO-1 in the presence of unlabeled Pep I (ZO-1; unlabeled Pep I 1000×, 20 μM): almost abolished

Molecule: CCSC1=N/C(=C\c2ccccc2)C(=O)N1 [S-PMH]
- cell-cell adhesion, prostate tumor growth and metastasis (prostate tumor): enhance cell-cell adhesion and attenuate prostate tumor growth and metastasis

Molecule: O=C1NC(=O)/C(=C/c2ccc(/C=C3/NC(=O)NC3=O)cc2)N1 [MRM-6, (5Z,5′E)-5,5′-(1,4-phenylenebis(methan-1-yl-1-ylidene))diimidazolidine-2,4-dione]
- potency relative to PMH and S-PMH in blocking CTR-ZO-1 interaction-mediated TCF/LEF activity [1]: more potent
- potency relative to PMH in inhibiting CT action ([1]; with 50 nM CT): significantly more potent than PMH

Molecule: O=S(=O)(NCCNC/C=C/c1ccc(Br)cc1)c1cccc2cnccc12 [Pep H-89]
- effect on CT-stimulated PKA activity (protein kinase A (PKA)): completely abolished

Molecule: Nc1ccc(/C=C2\NC(=O)NC2=O)c(Cl)c1 [MRM-4, (Z)-5-(4-amino-2-chlorobenzylidene)imidazolidine-2,4-dione]
- potency relative to PMH and S-PMH in blocking CTR-ZO-1 interaction-mediated TCF/LEF activity [1]: more potent
- potency relative to PMH in inhibiting CT action ([1]; with 50 nM CT): significantly more potent than PMH

Molecule: O=C1NC(=O)/C(=C/c2ccccc2)N1 [PMH, phenyl-methylene hydrantoin]
- effect on CT-stimulated luciferase activity ([1]; with 50 nM CT): decreased it remarkably
- cell-cell adhesion, prostate tumor growth and metastasis (prostate tumor): enhance cell-cell adhesion and attenuate prostate tumor growth and metastasis
